Assay results reported in patent publication US12466817B2, “Pyridine derivative and application thereof” (Nicoya Therapeutics (Shanghai) Co., Ltd, priority 2020, dated 2025).

Tests used:
CYP2C9 = biological target: T1, CYP2C9 (Homo sapiens, UniProt P11712); test: Inhibition of human liver microsomal CYP2C9 activity; type: in vitro ADME; settings: human liver microsomes, probe substrate diclofenac, NADPH
T1 construct: from tissue; host or cells: human liver microsomes
Experimental: (§1) A total of five specific probe substrates for the five isozymes of CYP, phenacetin (CYP1A2), diclofenac (CYP2C9), (S′)-mephenytoin (CYP2C19), dextromethorphan ([…]), and midazolam (CYP3A4), were incubated respectively with human liver microsomes and the test compounds, and the reaction was initiated by the addition of reduced nicotinamide adenine dinucleotide phosphate (NADPH), and the samples were treated and the concentrations of the five metabolites produced by the specific substrates, acetaminophen, 4′-hydroxydiclofenac, 4′-hydroxymephenytoin, dextrorphan and 1′-hydroxymidazolam were measured by liquid chromatography tandem mass spectrometry (LC-MS/MS) after the end of the reaction, and the corresponding half maximal inhibitory concentrations (IC50) were calculated.

CYP2D6 = biological target: T2, CYP2D6 (Homo sapiens, UniProt P10635); test: Inhibition of human liver microsomal CYP2D6 activity; type: in vitro ADME; settings: human liver microsomes, probe substrate dextromethorphan, NADPH
T2 construct: from tissue; host or cells: human liver microsomes
Experimental: as §1

CYP1A2 = biological target: T3, CYP1A2 (Homo sapiens, UniProt P05177); test: Inhibition of human liver microsomal CYP1A2 activity; type: in vitro ADME; settings: human liver microsomes, probe substrate phenacetin, NADPH
T3 construct: from tissue; host or cells: human liver microsomes
T3 sequence (P05177 1-516): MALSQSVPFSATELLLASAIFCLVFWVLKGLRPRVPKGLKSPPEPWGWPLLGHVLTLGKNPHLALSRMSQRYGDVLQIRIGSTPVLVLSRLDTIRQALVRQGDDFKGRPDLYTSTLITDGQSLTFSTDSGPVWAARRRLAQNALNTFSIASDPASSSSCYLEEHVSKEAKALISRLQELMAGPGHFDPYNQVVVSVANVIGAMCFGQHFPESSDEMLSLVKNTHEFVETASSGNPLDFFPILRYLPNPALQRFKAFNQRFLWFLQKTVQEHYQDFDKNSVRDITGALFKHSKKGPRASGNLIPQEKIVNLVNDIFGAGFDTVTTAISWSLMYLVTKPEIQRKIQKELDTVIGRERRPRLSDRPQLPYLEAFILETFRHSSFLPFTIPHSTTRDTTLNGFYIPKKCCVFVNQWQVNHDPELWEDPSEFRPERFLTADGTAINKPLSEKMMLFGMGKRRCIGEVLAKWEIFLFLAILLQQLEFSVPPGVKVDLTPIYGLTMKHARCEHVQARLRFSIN
Experimental: as §1

CYP3A4 = biological target: T4, CYP3A4 (Homo sapiens, UniProt P08684); test: Inhibition of human liver microsomal CYP3A4 activity; type: in vitro ADME; settings: human liver microsomes, probe substrate midazolam, NADPH
T4 construct: from tissue; host or cells: human liver microsomes
Experimental: as §1

CYP2C19 = biological target: T5, CYP2C19 (Homo sapiens, UniProt P33261); test: Inhibition of human liver microsomal CYP2C19 activity; type: in vitro ADME; settings: human liver microsomes, probe substrate (S)-mephenytoin, NADPH
T5 construct: from tissue; host or cells: human liver microsomes
Experimental: as §1

CCR2 = biological target: T6, CCR2 (Homo sapiens, UniProt P41597); test: CCR2 FLIPR Calcium assay (intracellular calcium signaling); type: cell-based; settings: HEK293 host cells, clone C7; agonist MCP-1; Fluo-4 calcium signal
T6 construct: expressed in transfected cells; host or cells: HEK293, clone C7, passage P6
Experimental: (§2) The inhibitory effects of the compounds on CCR2 and CCR5 receptors were evaluated by detecting intracellular calcium signaling changes by FLIPR Calcium assay, using the IC50 values of the compounds as indicators.
(§3) 1. Cell lines: The cells were seeded and incubated overnight at 37° C. in a 5% CO2 incubator CCR2/CCR5 density: 1 M (20 k/well)
(§4) 2. Reagent: Fluo-4 Direct, (Invitrogen, Cat #F10471)
(§5) The compound was prepared by dissolving in DMSO to a 10 mM solution, and the compound solution was placed in a nitrogen chamber.
(§6) Preparation of probenecid in FLIPR assay buffer: 1 mL of FLIPR assay buffer was added to 77 mg of probenecid to make a 250 mM solution. The solution was prepared every day to keep fresh.
(§7) 2× (8 μM) Fluo-4 Direct™ loading buffer (10 mL of each)
(§8) 0.2 mL of probenecid was added to each 10 mL of Fluo-Direct. The final measured concentration was 2.5 mM MCP-1 was diluted in FLIPR assay buffer 1:2 for 10 spots, starting at 0.5 μM (eventually to […]). RANTES was diluted in FLIPR assay buffer 1:3 for 10 spots, starting at 0.5 μM (eventually to […]). 20 μL of serially diluted compound buffer was added to each well of the DRC plate.
(§9) The standard compound was diluted in DMSO 1:3 for 11 points, starting at 1 mM.
(§10) The test compound was diluted in DMSO 1:3 for 11 spots, starting at 2 mM. 250 nL of compound solution was transferred to cell plates using Echo (Greiner #781946) c) The cell plate was taken from the incubator and 20 μL of 2× Fluo-4 Direct no wash loading buffer was gently dispensed into a 384-well cell culture plate using a pipette. The volume in the final cell plate was 40 μL […]
(§11) d) Incubation was conducted at 37° C. 5% CO2 for 50 minutes, at room temperature for 10 minutes e) The cell plate was taken from the incubator and placed in the FLIPR. The composite plate and pipette tip box were placed in the FLIPR
(§12) 5) The “Max-Min” was calculated from Read 90 to the maximum allowed. EC80 values for each cell line were calculated using FLIPR
(§13) 6) Agonist reference compound at 5 times EC80 concentration was prepared 2) 10 μL of agonist reference compound at 5 times EC80 concentration was transferred from the composite plate to the cell plate.
(§14) 3) Fluorescence signals were read.
(§15) 4) The “Max-Min” was calculated from Read 90 to the maximum allowed h) Data was analyzed by using Prism, the IC50 values of the compounds were calculated.

CCR5 = biological target: T7, CCR5 (Homo sapiens, UniProt P51681); test: CCR5 FLIPR Calcium assay (intracellular calcium signaling); type: cell-based; settings: HEK293 host cells, clone C13; agonist RANTES; Fluo-4 calcium signal
T7 construct: expressed in transfected cells; host or cells: HEK293, clone C13, passage P4
Experimental: as §2, §3, §4, §5, §6, §7, §8, §9, §10, §11, §12, §13, §14, §15

[1] = system: human liver microsomal cytochrome P450 isozymes (CYP1A2, CYP2B6, CYP2C8, CYP2C9, CYP2C19, CYP2D6 and CYP3A4); test: Inhibition of human liver microsomal cytochrome P450 isozymes, overall conclusion; type: in vitro ADME; settings: human liver microsomes
Experimental: as §1

[2] = Comparative pharmacokinetic test in mice; type: in vivo, C57BL/6 male mice
Experimental: C57BL/6 male mice were used as test animals in the present study, and the plasma drug concentrations of the test compound WX009 and the reference compound in mice by intravenous administration or oral administration were quantified by LC/MS/MS method at different time points respectively to evaluate the pharmacokinetic characteristics of the two test drugs in mice.
A clarified solution of the test compound was injected via tail vein into C57BL/6 mice (overnight fasting, 7-10 weeks old), and the test compound was given by gavage into C57BL/6 mice (overnight fasting, 7-10 weeks old). Approximately 30 μL of blood was collected from the jugular or tail vein at 0.0833, 0.25, 0.5, 1, 2, 4, 6, 8, and 24 hours after administration, and placed in anticoagulation tubes added with EDTA-K2, then centrifuged at 4° C. for 15 minutes at 3000 g to give the plasma. Plasma drug concentration was determined by LC-MS/MS, and relevant pharmacokinetic parameters were calculated using WinNonlin™ Version 6.3 (Pharsight, Mountain View, CA) pharmacokinetic software with a non-compartmental model linear logarithmic trapezoidal method.

T5 sequence (P33261 whole entry): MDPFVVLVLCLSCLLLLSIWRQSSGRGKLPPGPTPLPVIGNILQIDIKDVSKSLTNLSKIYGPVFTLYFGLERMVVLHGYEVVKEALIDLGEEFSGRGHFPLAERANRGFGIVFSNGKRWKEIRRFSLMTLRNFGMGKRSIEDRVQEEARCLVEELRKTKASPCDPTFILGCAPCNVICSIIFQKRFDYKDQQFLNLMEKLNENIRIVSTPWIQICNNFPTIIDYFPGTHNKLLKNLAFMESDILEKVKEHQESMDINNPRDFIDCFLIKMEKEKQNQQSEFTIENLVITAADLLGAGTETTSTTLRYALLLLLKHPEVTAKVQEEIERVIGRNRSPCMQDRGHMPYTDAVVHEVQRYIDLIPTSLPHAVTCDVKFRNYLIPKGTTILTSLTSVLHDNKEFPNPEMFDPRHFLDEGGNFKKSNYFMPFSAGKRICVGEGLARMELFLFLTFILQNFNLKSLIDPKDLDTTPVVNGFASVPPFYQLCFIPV
T4 sequence (P08684 whole entry): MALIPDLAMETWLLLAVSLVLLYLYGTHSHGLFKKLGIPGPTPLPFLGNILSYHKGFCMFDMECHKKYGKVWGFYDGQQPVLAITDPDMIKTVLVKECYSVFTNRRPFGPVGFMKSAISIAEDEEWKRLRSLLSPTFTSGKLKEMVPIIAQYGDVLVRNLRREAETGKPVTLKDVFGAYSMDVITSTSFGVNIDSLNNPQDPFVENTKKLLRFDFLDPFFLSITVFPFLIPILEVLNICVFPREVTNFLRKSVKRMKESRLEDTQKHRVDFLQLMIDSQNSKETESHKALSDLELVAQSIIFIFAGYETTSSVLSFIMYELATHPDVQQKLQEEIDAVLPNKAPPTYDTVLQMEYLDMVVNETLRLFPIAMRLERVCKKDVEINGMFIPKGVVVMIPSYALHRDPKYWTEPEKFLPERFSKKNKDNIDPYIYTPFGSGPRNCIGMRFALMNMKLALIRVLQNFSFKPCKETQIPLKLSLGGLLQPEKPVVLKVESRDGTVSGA
T2 sequence (P10635 whole entry): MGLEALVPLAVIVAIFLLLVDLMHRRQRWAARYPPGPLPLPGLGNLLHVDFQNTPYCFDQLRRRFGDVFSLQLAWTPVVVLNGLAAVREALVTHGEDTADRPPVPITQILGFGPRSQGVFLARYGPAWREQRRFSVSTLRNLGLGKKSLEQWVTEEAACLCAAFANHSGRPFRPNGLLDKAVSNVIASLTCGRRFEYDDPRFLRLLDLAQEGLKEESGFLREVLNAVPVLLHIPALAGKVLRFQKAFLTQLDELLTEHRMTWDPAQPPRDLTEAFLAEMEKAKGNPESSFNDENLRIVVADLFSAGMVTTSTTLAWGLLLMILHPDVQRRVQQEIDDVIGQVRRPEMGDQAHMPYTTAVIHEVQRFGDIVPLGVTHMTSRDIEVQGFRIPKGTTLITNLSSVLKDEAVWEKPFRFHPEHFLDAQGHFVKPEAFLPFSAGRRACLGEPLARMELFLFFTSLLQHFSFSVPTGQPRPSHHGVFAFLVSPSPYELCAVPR
T1 sequence (P11712 whole entry): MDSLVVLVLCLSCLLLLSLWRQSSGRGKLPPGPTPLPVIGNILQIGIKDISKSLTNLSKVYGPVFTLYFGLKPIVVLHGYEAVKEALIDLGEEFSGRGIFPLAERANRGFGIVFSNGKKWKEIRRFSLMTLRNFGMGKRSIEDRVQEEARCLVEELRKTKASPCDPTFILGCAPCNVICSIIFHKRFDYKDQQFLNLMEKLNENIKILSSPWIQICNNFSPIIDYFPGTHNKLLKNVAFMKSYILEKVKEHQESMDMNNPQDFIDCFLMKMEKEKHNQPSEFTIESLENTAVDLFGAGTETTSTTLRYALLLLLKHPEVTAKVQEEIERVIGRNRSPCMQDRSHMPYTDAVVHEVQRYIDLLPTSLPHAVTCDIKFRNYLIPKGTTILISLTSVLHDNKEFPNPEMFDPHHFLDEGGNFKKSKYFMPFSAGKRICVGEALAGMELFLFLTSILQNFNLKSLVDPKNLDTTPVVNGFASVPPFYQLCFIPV
T7 sequence (P51681 whole entry, species assumed): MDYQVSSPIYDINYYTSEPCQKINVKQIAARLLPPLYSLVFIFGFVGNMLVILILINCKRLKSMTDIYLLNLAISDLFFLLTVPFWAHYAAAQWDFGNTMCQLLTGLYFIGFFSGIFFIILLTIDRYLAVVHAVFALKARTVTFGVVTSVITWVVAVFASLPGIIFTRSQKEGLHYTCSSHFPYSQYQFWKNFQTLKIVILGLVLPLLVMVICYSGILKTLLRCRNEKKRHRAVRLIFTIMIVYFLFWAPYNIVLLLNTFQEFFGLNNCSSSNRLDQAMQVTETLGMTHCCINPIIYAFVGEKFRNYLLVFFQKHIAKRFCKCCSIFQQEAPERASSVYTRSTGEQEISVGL
T6 sequence (P41597 whole entry, species assumed): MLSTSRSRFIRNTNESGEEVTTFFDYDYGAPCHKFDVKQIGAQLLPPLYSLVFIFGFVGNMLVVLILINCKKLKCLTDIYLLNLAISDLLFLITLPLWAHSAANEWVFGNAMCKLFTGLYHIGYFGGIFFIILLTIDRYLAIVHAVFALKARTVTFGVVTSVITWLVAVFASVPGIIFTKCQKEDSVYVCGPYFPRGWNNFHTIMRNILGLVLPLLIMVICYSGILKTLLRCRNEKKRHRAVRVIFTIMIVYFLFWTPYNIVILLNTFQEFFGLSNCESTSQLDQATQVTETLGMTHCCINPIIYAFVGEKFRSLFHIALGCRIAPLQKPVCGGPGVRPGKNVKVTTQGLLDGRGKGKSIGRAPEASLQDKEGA

CCCCOCCOc1ccc(-c2ccc3c(c2)C=C(C(=O)Nc2ccc([S+]([O-])Cc4c(CC)ccnc4C)cc2)CCCN3CC2CCOCC2)cc1 (single isomer, unassigned) [WX007]
IC50 (CYP2C9): > 50 µM | IC50 (CYP2D6): > 50 µM | IC50 (CYP1A2): > 50 µM | IC50 (CYP3A4): > 50 µM | IC50 (CYP2C19): > 50 µM | IC50 (CCR2): 0.00196 µM | IC50 (CCR5): 0.00574 µM | Risk of inhibition of human liver microsomal cytochrome P450 isozymes (in words) [1]: no risk of inhibition

CCCCOCCOc1ccc(-c2ccc3c(c2)C=C(C(=O)Nc2ccc([S+]([O-])Cc4c(CC)ccnc4C)cc2)CCCN3CC2CCCO2)cc1 (single isomer, unassigned) [WX009]
IC50 (CYP2C9): > 50 µM | IC50 (CYP2D6): > 50 µM | IC50 (CYP1A2): > 50 µM | IC50 (CYP3A4): 4.6 µM | half-life ([2]; male, C57BL/6, mouse, plasma, mice, intravenous injection 2 mg/kg): 4.4 h | clearance ([2]; male, C57BL/6, mouse, plasma, mice, intravenous injection 2 mg/kg, read-out: Plasma clearance rate): 0.46 mL/min/kg | bioavailability ([2]; male, C57BL/6, mouse, plasma, mice, oral 10 mg/kg): 8% | Plasma clearance rate compared with the reference compound (in words) ([2]; mice, intravenous): slower | Oral plasma systemic exposure (AUC0-inf) relative to the reference compound ([2]; mice, oral): approximately six times higher | Area under the time-concentration curve (0-inf) ([2]; mice, oral 10 mg/kg): 37.356 µM·h | Peak concentration ([2]; mice, oral 10 mg/kg): 5.076 µM | Peak time ([2]; mice, oral 10 mg/kg): 2.0 h | Pharmacokinetics compared with the reference compound (in words) ([2]; rodent mice): significantly better | IC50 (CYP2C19): > 50 µM | IC50 (CCR2): 0.00184 µM | IC50 (CCR5): 0.00464 µM | Risk of inhibition of human liver microsomal cytochrome P450 isozymes (in words) [1]: no risk of inhibition

CCCCOCCOc1ccc(-c2ccc3c(c2)C=C(C(=O)Nc2ccc([S+]([O-])Cc4cnc(C)cc4CC)cc2)CCCN3CC2CCOCC2)cc1 (single isomer, unassigned) [WX012]
IC50 (CYP2C9): 22.6 µM | IC50 (CYP2D6): > 50 µM | IC50 (CYP1A2): > 50 µM | IC50 (CYP3A4): > 50 µM | IC50 (CYP2C19): 10.1 µM | IC50 (CCR2): 0.0015 µM | IC50 (CCR5): 0.0084 µM | Risk of inhibition of human liver microsomal cytochrome P450 isozymes (in words) [1]: no risk of inhibition
